# Source: patent US11129829B2, “Methods for modulating splicing” (Skyhawk Therapeutics, Inc., priority 2019, dated 2021)
# Legend:
# Type in all cases: cell-based
# [1] = system: A-673; experiment: A-673 cell viability
# [2] = system: FoxM1 A mRNA; experiment: Splice EC50: FoxM1 A mRNA increase (exon excluded); details: read-out: Splice EC50 (nM)^B
# [3] = system: FoxM1 BC mRNA; experiment: Splice IC50: FoxM1 BC mRNA decrease (exon included); details: read-out: Splice IC50 (nM)^C
# [4] = Homo sapiens, A673, Cell viability
smiles,measurement,setting,value
"CN(c1ccc(-c2ccc(-n3nccn3)cc2O)nn1)[C@@H]1C[C@H]2CCC[C@@H](C1)N2 [compound 275, 2-(6-(((1R,3S,5S)-9-azabicyclo[3.3.1]nonan-3-yl)(methyl)amino)pyridazin-3-yl)-5-(2H-1,2,3-triazol-2-yl)phenol]",IC50,[1]; Cell viability,< 10 nM
same,EC50,[2],< 10 nM
same,IC50,[3],< 10 nM
"Oc1cc(-c2cn[nH]c2)ccc1-c1ccc(O[C@@H]2C[C@H]3CCC[C@@H](C2)N3)nn1 [compound 277, 2-(6-(((1R,3R,5S)-9-azabicyclo[3.3.1]nonan-3-yl)oxy)pyridazin-3-yl)-5-(1H-pyrazol-4-yl)phenol]",IC50,[1]; Cell viability,> 1000 nM
same,EC50,[2],> 1000 nM
same,IC50,[3],> 1000 nM
"CN(c1ccc(-c2ccc(-n3ccnn3)cc2O)nn1)[C@@H]1C[C@H]2CCC[C@@H](C1)N2 [compound 279, 2-(6-(((1R,3S,5S)-9-azabicyclo[3.3.1]nonan-3-yl)(methyl)amino)pyridazin-3-yl)-5-(1H-1,2,3-triazol-1-yl)phenol]",IC50,[1]; Cell viability,10 to 100 nM
same,EC50,[2],< 10 nM
same,IC50,[3],< 10 nM
[2H]C([2H])([2H])n1ncc(-c2ccc(-c3ccc(N(C)[C@@H]4C[C@H]5CCC[C@@H](C4)N5)nn3)c(O)c2)cc1=O [compound 281],IC50,[1]; [4],< 10 nM
same,EC50,[2],< 10 nM
same,IC50,[3],< 10 nM
"[2H]C([2H])([2H])n1ccc(-c2ccc(-c3ccc(N(C)[C@@H]4C[C@H]5CCC[C@@H](C4)N5)nn3)c(O)c2)cc1=O [compound 284, 4-(4-(6-(((1R,3S,5S)-9-azabicyclo[3.3.1]nonan-3-yl)(methyl)amino)pyridazin-3-yl)-3-hydroxyphenyl)-1-(methyl-d3)pyridin-2(1H)-one]",IC50,[1]; [4],< 10 nM
same,EC50,[2],> 1000 nM
same,IC50,[3],< 10 nM
